Experiments:
LRRK2 WT [1] = biological target: T1, LRRK2 WT (Homo sapiens, UniProt Q5S007); test: In vitro kinase assay: LRRK2-mediated MBP phosphorylation; format: biochemical; settings: compound 16 μM; 30° C., 15 min; normalized to absence of compound; mean ± S.E.M. of three experiments
LRRK2 WT [2] = biological target: T1, LRRK2 WT; test: In vitro kinase assay: LRRK2 autophosphorylation; format: biochemical; settings: compound 16 μM; phosphorylation normalized to absence of compound; mean ± S.E.M. of three experiments

T1 sequence (Q5S007 whole entry): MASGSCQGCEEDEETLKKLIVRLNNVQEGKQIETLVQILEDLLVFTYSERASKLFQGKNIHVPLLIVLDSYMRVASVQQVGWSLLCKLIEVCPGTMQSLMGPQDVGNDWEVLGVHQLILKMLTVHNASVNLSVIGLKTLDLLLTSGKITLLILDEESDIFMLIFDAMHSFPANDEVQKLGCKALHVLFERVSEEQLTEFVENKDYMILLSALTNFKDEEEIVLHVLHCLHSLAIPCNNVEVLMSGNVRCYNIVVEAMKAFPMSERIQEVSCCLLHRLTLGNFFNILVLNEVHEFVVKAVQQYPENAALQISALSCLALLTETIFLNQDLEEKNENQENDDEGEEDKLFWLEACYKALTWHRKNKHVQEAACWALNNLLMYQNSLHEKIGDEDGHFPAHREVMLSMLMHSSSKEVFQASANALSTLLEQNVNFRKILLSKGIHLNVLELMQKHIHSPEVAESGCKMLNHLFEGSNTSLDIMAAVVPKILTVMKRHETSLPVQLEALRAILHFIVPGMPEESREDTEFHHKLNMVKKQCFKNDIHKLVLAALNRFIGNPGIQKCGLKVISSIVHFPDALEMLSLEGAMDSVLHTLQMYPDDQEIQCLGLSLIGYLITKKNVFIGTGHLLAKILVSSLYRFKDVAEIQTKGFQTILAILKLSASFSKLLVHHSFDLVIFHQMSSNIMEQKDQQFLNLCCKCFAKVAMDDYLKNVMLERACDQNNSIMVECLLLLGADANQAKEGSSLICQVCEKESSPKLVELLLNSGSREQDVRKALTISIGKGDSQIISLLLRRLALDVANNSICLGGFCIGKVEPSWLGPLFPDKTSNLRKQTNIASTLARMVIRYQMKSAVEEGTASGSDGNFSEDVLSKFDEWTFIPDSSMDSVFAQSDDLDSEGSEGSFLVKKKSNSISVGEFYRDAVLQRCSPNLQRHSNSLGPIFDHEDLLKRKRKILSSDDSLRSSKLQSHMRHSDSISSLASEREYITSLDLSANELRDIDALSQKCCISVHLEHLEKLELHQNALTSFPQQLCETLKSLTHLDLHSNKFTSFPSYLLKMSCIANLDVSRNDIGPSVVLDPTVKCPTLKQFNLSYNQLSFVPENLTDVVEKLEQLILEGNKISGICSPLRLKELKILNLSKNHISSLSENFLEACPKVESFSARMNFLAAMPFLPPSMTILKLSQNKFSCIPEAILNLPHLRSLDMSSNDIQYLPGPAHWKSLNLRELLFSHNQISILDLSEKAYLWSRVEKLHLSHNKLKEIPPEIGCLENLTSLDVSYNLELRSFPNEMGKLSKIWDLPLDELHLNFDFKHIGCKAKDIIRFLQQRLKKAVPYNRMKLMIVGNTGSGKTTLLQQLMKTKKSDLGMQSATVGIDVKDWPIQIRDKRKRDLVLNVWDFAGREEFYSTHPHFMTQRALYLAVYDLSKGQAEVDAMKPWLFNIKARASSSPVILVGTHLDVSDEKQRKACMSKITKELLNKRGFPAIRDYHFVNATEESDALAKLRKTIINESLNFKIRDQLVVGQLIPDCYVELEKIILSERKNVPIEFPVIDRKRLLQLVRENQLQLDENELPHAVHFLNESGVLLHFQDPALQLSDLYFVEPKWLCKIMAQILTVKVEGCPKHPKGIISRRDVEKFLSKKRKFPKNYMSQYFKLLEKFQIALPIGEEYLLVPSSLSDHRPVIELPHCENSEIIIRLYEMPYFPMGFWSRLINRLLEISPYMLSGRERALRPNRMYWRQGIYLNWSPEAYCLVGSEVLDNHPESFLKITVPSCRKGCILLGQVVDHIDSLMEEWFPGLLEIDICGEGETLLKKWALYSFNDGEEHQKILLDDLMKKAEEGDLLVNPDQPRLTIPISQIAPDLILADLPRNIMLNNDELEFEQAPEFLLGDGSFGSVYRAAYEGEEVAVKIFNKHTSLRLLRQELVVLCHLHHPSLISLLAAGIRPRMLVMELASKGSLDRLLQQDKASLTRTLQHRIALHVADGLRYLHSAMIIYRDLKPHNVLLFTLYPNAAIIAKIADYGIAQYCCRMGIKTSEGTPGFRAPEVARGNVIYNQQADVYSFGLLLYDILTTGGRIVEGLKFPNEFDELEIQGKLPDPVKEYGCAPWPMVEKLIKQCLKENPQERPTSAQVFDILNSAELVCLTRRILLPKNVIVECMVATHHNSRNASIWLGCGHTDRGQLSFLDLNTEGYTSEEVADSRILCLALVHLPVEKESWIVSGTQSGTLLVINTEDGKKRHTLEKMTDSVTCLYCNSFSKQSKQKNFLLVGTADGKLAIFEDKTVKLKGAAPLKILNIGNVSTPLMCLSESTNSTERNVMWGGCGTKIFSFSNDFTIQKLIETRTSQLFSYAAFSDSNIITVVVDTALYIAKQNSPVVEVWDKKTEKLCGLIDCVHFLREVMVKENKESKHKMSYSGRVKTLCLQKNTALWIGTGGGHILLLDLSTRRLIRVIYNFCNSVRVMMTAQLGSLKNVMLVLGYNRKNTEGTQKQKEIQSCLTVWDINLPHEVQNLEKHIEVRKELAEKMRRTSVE

SMILES	MBP phosphorylation Average ± SEM (LRRK2 WT [1])	LRRK2 autophosphorylation Average ± SEM (LRRK2 WT [2])
N#C/C(=C\c1ccc(O)c(O)c1)C(N)=O [Inhibitor 13]	117.3 ± 18.5 % of control	81.0 ± 13.4 % of control
CC1CNCCN1S(=O)(=O)c1cccc2cnccc12 (stereo not drawn) [Inhibitor 4]	88.0 ± 26.4 % of control	80.3 ± 8.2 % of control
Cc1cc(O)c2c(=O)c3c(O)cc(O)c4c5c(O)cc(O)c6c(=O)c7c(O)cc(C)c8c1c2c(c34)c(c78)c65 [Inhibitor 32]	160.9 ± 12 % of control	57.4 ± 30.1 % of control
Cc1ccc(-c2nn(C(C)(C)C)c3ncnc(N)c23)cc1 [Inhibitor 24]	103.6 ± 60.1 % of control	88.3 ± 17.1 % of control
CC1(C)[C@H](C=C(Cl)Cl)[C@@H]1C(=O)O[C@H](C#N)c1cccc(Oc2ccccc2)c1 [Inhibitor 80]	76.9 ± 13.7 % of control	66.4 ± 17.4 % of control
CC(=O)c1c(O)c(C)c(O)c(Cc2c(O)c3c(c(C(=O)/C=C/c4ccccc4)c2O)OC(C)(C)C=C3)c1O [Inhibitor 58]	147.2 ± 64.3 % of control	28.1 ± 39.8 % of control

Next, values leading:

MBP phosphorylation Average ± SEM (LRRK2 WT [1])	LRRK2 autophosphorylation Average ± SEM (LRRK2 WT [2])	SMILES
75.6 ± 56.9 % of control	56.1 ± 27.6 % of control	N#C/C(=C\c1ccc(O)c(O)c1)C(=O)Nc1ccccc1 [Inhibitor 7]
45.2 ± 46.1 % of control	90.8 ± 30.7 % of control	N#C/C(=C/c1cc(Cl)cc(Cl)c1)c1cccnc1 [Inhibitor 10]
106.7 ± 25.4 % of control	81.1 ± 17.3 % of control	N=C(N)NCCNS(=O)(=O)c1cccc2cnccc12 [Inhibitor 37]
55.5 ± 56.5 % of control	66.9 ± 2.0 % of control	N#CC(C#N)=Cc1ccc(O)c(O)c1 [Inhibitor 11]
138.8 ± 33.9 % of control	75.0 ± 2.3 % of control	Cl.c1ccc(C2CN3CCSC3=N2)cc1 (stereo not drawn) [Inhibitor 79]
83.2 ± 50.5 % of control	75.9 ± 3.9 % of control	Brc1ccc([C@H]2CN3CCSC3=N2)cc1 [Inhibitor 75]
101.0 ± 105 % of control	86.9 ± 10.3 % of control	N#CC(=C(/N)Sc1ccccc1N)/C(C#N)=C(\N)Sc1ccccc1N [Inhibitor 2]
141.0 ± 50.8 % of control	81.0 ± 31.9 % of control	O=c1c(-c2ccc(O)cc2)coc2cc(O)ccc12 [Inhibitor 60]
104.3 ± 14.6 % of control	89.4 ± 12.5 % of control	Cc1cc2ncc(-c3ccccc3)nc2cc1C [Inhibitor 19]
